The source of these data is patent US20030162777A1, “Novel N-acylated heterocycles” (Recordati S.A., priority 2001, published 2003).

For this assay, the target named is T1, human 5HT1A-serotonergic receptor (Homo sapiens, UniProt P08908).
T1 construct: expressed in transfected cells; host or cells: HeLa (human cell line), stably transfected; cell membranes used
T1 sequence (P08908 1-422): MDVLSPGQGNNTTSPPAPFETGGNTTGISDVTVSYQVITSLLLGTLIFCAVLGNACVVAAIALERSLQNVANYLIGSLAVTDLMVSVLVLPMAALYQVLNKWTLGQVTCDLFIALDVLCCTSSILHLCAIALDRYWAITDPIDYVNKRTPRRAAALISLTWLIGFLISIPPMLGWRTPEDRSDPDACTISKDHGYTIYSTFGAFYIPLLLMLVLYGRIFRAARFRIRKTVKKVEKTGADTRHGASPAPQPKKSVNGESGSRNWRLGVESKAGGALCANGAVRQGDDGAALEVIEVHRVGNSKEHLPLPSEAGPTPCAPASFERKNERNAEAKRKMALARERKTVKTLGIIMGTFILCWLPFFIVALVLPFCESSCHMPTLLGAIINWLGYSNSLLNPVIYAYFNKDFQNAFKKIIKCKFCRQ
Description: Radioligand binding to recombinant 5-HT1A receptors. The following applies: [3H]8-OH-DPAT 1 nM, membranes of HeLa cells with human 5-HT1A receptor; Ki from IC50 by Cheng & Prusoff; read-out: Binding affinity for 5HT1A receptors, Ki. The protocol:
Genomic clone G-21 coding for the human 5HT1A-serotonergic receptor was stably transfected in a human cell line (HeLa). HeLa cells were grown as monolayers in Dulbecco's modified Eagle medium (DMEM), containing 10% foetal bovine serum, gentamicin ([…]) and 5% carbon dioxide, at 37° C. The cells were detached from the growth flask at 95% confluence by a cell scraper and were lysed in cold 5 mM Tris and 5 mM EDTA buffer (pH 7.4). The homogenates were centrifuged at 40000×g×20 minutes and the pellets were resuspended in a small volume of cold 5 mM Tris and 5 mM EDTA buffer (pH 7.4) and immediately frozen and stored at −70° C. until use. On the day of experiment, the cell membranes were resuspended in incubation buffer: 50 mM Tris HCl (pH 7.4), 2.5 mM MgCl2, […] (Fargin et al., Nature 335, 358-360, 1988). The membranes were incubated in a final volume of 1 ml for 30 minutes at 30° C. with 1 nM [^3H]8-OH-DPAT, in the absence or presence of the test compounds. Non-specific binding was determined in the presence of 10 μM 5-HT. Incubation was stopped by addition of cold Tris-HC 1 buffer and rapid filtration through a 0.2%-polyethyleneimine-pretreated Whatman-GF/B or Schleicher-&-Schuell-GF52 filter.
The affinity of the tested compounds was evaluated as inhibition of specific binding of the radioligand to 5-HT1A receptors (IC50) by using the non-linear curve-fitting program Allfit (De Lean et al., Am. J. Physiol. 235, E97-E102 (1978). The IC50 value was converted to an affinity constant (Ki) by the equation of Cheng & Prusoff (Cheng Y. C., Prusoff W. H., Biochem. Pharmacol. 22, 3099-3108 (1973)).

Consider “1-(2-Cyclopropylacetyl-1,2,3,4-tetrahydroquinoline-2-ylmethyl)-4-(4-indolyl)piperazine [Example 68A11]”, for which the inhibitory constant (Ki) was 6.8 nM. Next, “1-(2-Ethylbutanoyl-1,2,3,4-tetrahydroquinoline-2-ylmethyl)-4-(4-indolyl)piperazine [Example 24A]”: 12.9 nM; “1-(2-Furoyl-1,2,3,4-tetrahydroquinoline-2-ylmethyl)-4-(4-indolyl)piperazine [Example 68A13]”: 5.3 nM; “1-(4-Chloro-2-1-propoxyphenyl)-4-(1-cyclohexanecarbonyl-1,2,3,4-tetrahydroquinoline-2-ylmethyl)piperazine [Example 60A]”: 10.1 nM. Take `O=C(C1CCCCC1)N1c2ccccc2CCC1CN1CCCC(Cc2ccccc2)C1` (single isomer, unassigned) [Example 59, 3-Benzyl-1-(1-cyclohexanecarbonyl-1,2,3,4-tetrahydroquinoline-2-ylmethyl)piperidine]: the Ki was found to be 45.7 nM. Next, `C[C@@H](NC(=O)N1c2ccccc2CCC1CN1CCN(c2cccc3[nH]ccc23)CC1)c1ccccc1` (single isomer, unassigned) [Example 69A5]: 15.7 nM; `O=C(C1CCCCC1)N1c2ccccc2CCC1CN1CCN(c2ccccc2OCC(F)(F)F)CC1` (stereo not drawn) [Example 4, 1-(1-Cyclohexanecarbonyl-1,2,3,4-tetrahydroquinoline-2-ylmethyl)-4-[2-(2,2,2-trifluoroethoxy)phenyl]piperazine]: 0.7 nM. Next, `O=C(C1CCCCC1)N1c2ccc(F)cc2CCC1CN1CCN(c2ccccc2OCC(F)(F)F)CC1` (stereo not drawn) [Example 5, 1-(1-Cyclohexanecarbonyl-6-fluoro-1,2,3,4-tetrahydroquinoline-2-ylmethyl)-4-[2-(2,2,2-trifluoroethoxy)phenyl]piperazine]: 10.7 nM. Next, `COCCC(=O)N1c2ccccc2CCC1CN1CCN(c2ccccc2OCC(F)(F)F)CC1` (stereo not drawn) [Example 7, 1-[1-(3-Methoxypropionyl)-1,2,3,4-tetrahydroquinoline-2-ylmethyl]-4-[2-(2,2,2-trifluoroethoxy)phenyl]piperazine]: 31.2 nM; `O=C(CCOCc1ccccc1)N1c2ccccc2CCC1CN1CCN(c2ccccc2OCC(F)(F)F)CC1` (stereo not drawn) [Example 8, 1-[1-(3-Benzyloxypropionyl)-1,2,3,4-tetrahydroquinoline-2-ylmethyl]-4-[2-(2,2,2-trifluoroethoxy)phenyl]piperazine]: 10.3 nM. Regarding `O=C(CCOCc1ccccc1)N1c2ccccc2CCC1CN1CCN(c2cccc3[nH]ccc23)CC1` (stereo not drawn) [Example 9, 1-[1-(3-Benzyloxypropionyl)-1,2,3,4-tetrahydroquinoline-2-ylmethyl]-4-(4-indolyl)piperazine], the inhibitory constant (Ki) was 9.6 nM. On to `COCCC(=O)N1c2ccccc2CCC1CN1CCN(c2cccc3[nH]ccc23)CC1` (stereo not drawn) [Example 11, 1-[1-(3-Methoxypropionyl)-1,2,3,4-tetrahydroquinoline-2-ylmethyl]-4-(4-indolyl)piperazine], for which the Ki stood at 40.8 nM.

Consider `CC(C)OCCC(=O)N1c2ccccc2CCC1CN1CCN(c2cccc3[nH]ccc23)CC1` (stereo not drawn) [Example 12, 1-[1-(3-Isopropoxypropionyl)-1,2,3,4-tetrahydroquinoline-2-ylmethyl]-4-(4-indolyl)piperazine], for which the Ki was 47.5 nM.

Consider `O=C(N1CCOCC1)N1c2ccccc2CCC1CN1CCN(c2cccc3[nH]ccc23)CC1` (stereo not drawn) [Example 14, 1-[1-(4-Morpholinocarbonyl)-1,2,3,4-tetrahydroquinoline-2-ylmethyl]-4-(4-indolyl)piperazine], for which the Ki is 82 nM. In the case of `Cn1ccc2c(N3CCN(CC4CCc5ccccc5N4C(=O)C4CCCCC4)CC3)cccc21` (stereo not drawn) [Example 15, 1-(1-Cyclohexanecarbonyl-1,2,3,4-tetrahydroquinoline-2-ylmethyl)-4-(1-methyl-4-indolyl)piperazine], the inhibitory constant (Ki) turned out to be 8.9 nM. Next, `CCNC(=O)N1c2ccccc2CCC1CN1CCN(c2cccc3[nH]ccc23)CC1` (stereo not drawn) [Example 20, 1-(1-Ethylaminocarbonyl-1,2,3,4-tetrahydroquinoline-2-ylmethyl)-4-(4-indolyl)piperazine]: 38.6 nM; `O=C(c1ccccc1)N1c2ccccc2CCC1CN1CCN(c2cccc3[nH]ccc23)CC1` (stereo not drawn) [Example 24A4, 1-(1-Benzoyl-1,2,3,4-tetrahydroquinoline-2-ylmethyl)-4-(4-indolyl)piperazine]: 9.3 nM; `O=C(C1CCCCC1)N1c2ccc(OC(F)(F)F)cc2CCC1CN1CCN(c2cccc3[nH]ccc23)CC1` (stereo not drawn) [Example 26, 1-(1-Cyclohexanecarbonyl-6-trifluoromethoxy-1,2,3,4-tetrahydroquinoline-2-ylmethyl)-4-(4-indolyl)piperazine]: 47.9 nM. Next, `O=C(Nc1ccccc1)N1c2ccccc2CCC1CN1CCN(c2cccc3[nH]ccc23)CC1` (stereo not drawn) [Example 31, 1-(4-Indolyl)-4-(1-phenylaminocarbonyl-1,2,3,4-tetrahydroquinoline-2-ylmethyl)piperazine]: 12.8 nM. Next, `Cc1ccc2c(c1)CCC(CN1CCN(c3cccc4[nH]ccc34)CC1)N2C(=O)C1CCCCC1` (stereo not drawn) [Example 32, 1-(1-Cyclohexanecarbonyl-6-methyl-1,2,3,4-tetrahydroquinoline-2-ylmethyl)-4-(4-indolyl)piperazine]: 2.8 nM; `O=C(N1CCCC1)N1c2ccccc2CCC1CN1CCN(c2cccc3[nH]ccc23)CC1` (stereo not drawn) [Example 33, 1-(4-Indolyl)-4-(1-pyrrolidinecarbonyl-1,2,3,4-tetrahydroquinoline-2-ylmethyl)piperazine]: 47.7 nM; `O=C(C1CCCCC1)N1c2ccc(Br)cc2CCC1CN1CCN(c2cccc3[nH]ccc23)CC1` (stereo not drawn) [Example 34, 1-(6-Bromo-1-cyclohexanecarbonyl-1,2,3,4-tetrahydroquinoline-2-ylmethyl)-4-(4-indolyl)piperazine]: 18.9 nM.

`O=C(C1CCCCC1)N1c2ccccc2CCC1CN1CCN(c2ccc(Cl)cc2Cl)CC1` (stereo not drawn) [Example 35A9, 1-(1-Cyclohexanecarbonyl-1,2,3,4-tetrahydroquinoline-2-ylmethyl)-4-(2,4-dichlorophenyl)piperazine]: the inhibition constant (Ki) came to 39.6 nM. Next, `Cc1ccc(F)c(N2CCN(CC3CCc4ccccc4N3C(=O)C3CCCCC3)CC2)c1` (stereo not drawn) [Example 35A12, 1-(1-Cyclohexanecarbonyl-1,2,3,4-tetrahydroquinoline-2-ylmethyl)-4-(2-fluoro-5-methylphenyl)piperazine]: 9.5 nM; `O=C(C1CCCCC1)N1c2ccccc2CCC1CN1CCN(c2cc(Cl)ccc2Cl)CC1` (stereo not drawn) [Example 35A19, 1-(1-Cyclohexanecarbonyl-1,2,3,4-tetrahydroquinoline-2-ylmethyl)-4-(2,5-dichlorophenyl)piperazine]: 5.2 nM; `O=C(C1CCCCC1)N1c2ccccc2CCC1CN1CCN(c2ncccn2)CC1` (stereo not drawn) [Example 35A21, 1-(1-Cyclohexanecarbonyl-1,2,3,4-tetrahydroquinoline-2-ylmethyl)-4-(2-pyrimidinyl)piperazine]: 18.2 nM.

On to `N#Cc1ccc(Cl)cc1N1CCN(CC2CCc3ccccc3N2C(=O)C2CCCCC2)CC1` (stereo not drawn) [Example 35A23, 1-(5-chloro-2-cyanophenyl)-4-(1-cyclohexanecarbonyl-1,2,3,4-tetrahydroquinoline-2-ylmethyl)piperazine], for which the Ki amounted to 3.1 nM. Turning to `COc1ccc(C#N)cc1N1CCN(CC2CCc3ccccc3N2C(=O)C2CCCCC2)CC1` (stereo not drawn) [Example 35A24, 1-(5-Cyano-2-methoxyphenyl)-4-(1-cyclohexanecarbonyl-1,2,3,4-tetrahydroquinoline-2-ylmethyl)piperazine], the Ki is 11.6 nM.

Consider `CC(=O)n1ccc2c(N3CCN(CC4CCc5ccccc5N4C(=O)C4CCCCC4)CC3)cccc21` (stereo not drawn) [Example 35A25, 1-(1-Acetyl-4-indolyl)-4-(1-cyclohexanecarbonyl-1,2,3,4-tetrahydroquinoline-2-ylmethyl)piperazine], for which the Ki turned out to be 10.1 nM. Next, `O=C(C1CCCCC1)N1c2ccccc2CCC1CN1CCN(c2cccc3cc[nH]c23)CC1` (stereo not drawn) [Example 35A26, 1-(1-Cyclohexanecarbonyl-1,2,3,4-tetrahydroquinoline-2-ylmethyl)-4-(7-indolyl)piperazine]: 3.1 nM.
